Data published in ChEMBL document CHEMBL5500349, “Discovery of ganoderic acid A (GAA) PROTACs as MDM2 protein degraders for the treatment of breast cancer” (Eur J Med Chem, 2024).
Calls of active or inactive are those of the source. The calls are words filed in the database; no cut-off is given here.

What was measured:
MCF7 = assay: Antiproliferative activity against human MCF7 cells assessed as cell viability at 100 uM incubated for 48 to 72 hrs by MTT assay; type: functional; details: time 48-72 hrs, read-out: Activity
MDA-MB-231 = assay: Antiproliferative activity against human MDA-MB-231 cells assessed as cell viability at 100 uM incubated for 48 to 72 hrs by MTT assay; type: functional; details: time 48-72 hrs, read-out: Activity
SJSA-1 = assay: Antiproliferative activity against human SJSA-1 cells assessed as cell viability at 100 uM incubated for 48 to 72 hrs by MTT assay; type: functional; details: time 48-72 hrs, read-out: Activity
HepG2 = assay: Antiproliferative activity against human HepG2 cells assessed as cell viability at 100 uM incubated for 48 to 72 hrs by MTT assay; type: functional; details: time 48-72 hrs, read-out: Activity
[1] = Cytotoxicity against mouse HT-22 cells assessed as cell viability at 100 uM incubated for 48 to 72 hrs by MTT assay; type: toxicity, cell-based; details: time 48-72 hrs, read-out: Activity
[2] = biological target: T1, von Hippel-Lindau disease tumor suppressor/E3 ubiquitin-protein ligase Mdm2 (Homo sapiens, UniProt Q00987+P40337); assay: Protac activity at VHL/MDM2 in human MCF7 cells assessed as reduction in MDM2 protein level after 48 hrs by Western blotting analysis; type: cell-based
[3] = biological target: T1, von Hippel-Lindau disease tumor suppressor/E3 ubiquitin-protein ligase Mdm2; assay: Protac activity at VHL/MDM2 in human MCF7 cells assessed as upregulation of p53 level at 75 to 105 uM after 48 hrs by Western blotting analysis; type: cell-based; details: dose 75-105 µM
Target sequence in this assay (P40337 whole entry, looked up): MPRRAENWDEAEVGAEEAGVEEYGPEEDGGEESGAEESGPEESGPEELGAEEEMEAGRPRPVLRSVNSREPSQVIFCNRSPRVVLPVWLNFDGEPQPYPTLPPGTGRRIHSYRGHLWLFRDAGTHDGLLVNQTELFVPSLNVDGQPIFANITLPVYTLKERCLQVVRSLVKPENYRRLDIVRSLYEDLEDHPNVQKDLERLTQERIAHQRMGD
Target sequence in this assay (Q00987 whole entry, looked up): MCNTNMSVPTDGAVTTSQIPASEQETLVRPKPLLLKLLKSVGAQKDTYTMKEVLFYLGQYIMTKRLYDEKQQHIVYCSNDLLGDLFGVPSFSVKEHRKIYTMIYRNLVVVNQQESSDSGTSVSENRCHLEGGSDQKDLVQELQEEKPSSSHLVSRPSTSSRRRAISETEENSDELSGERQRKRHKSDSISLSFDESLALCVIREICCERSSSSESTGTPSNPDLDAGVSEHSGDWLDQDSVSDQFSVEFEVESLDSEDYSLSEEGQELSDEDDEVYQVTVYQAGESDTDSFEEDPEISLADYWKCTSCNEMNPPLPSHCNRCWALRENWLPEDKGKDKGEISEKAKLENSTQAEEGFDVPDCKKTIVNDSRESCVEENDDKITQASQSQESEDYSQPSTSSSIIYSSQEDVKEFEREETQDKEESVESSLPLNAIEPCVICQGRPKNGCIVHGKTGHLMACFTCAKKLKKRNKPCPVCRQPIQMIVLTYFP

[4] = biological target: T1, von Hippel-Lindau disease tumor suppressor/E3 ubiquitin-protein ligase Mdm2; assay: Protac activity at VHL/MDM2 in human MCF7 cells assessed as upregulation of p21 level at 75 to 105 uM after 48 hrs by Western blotting analysis; type: cell-based; details: dose 75-105 µM
Target sequence in this assay (P40337 whole entry, looked up): as the sequence (P40337 whole entry, looked up) above
Target sequence in this assay (Q00987 whole entry, looked up): as the sequence (Q00987 whole entry, looked up) above

[5] = biological target: T1, von Hippel-Lindau disease tumor suppressor/E3 ubiquitin-protein ligase Mdm2; assay: Protac activity at VHL/MDM2 in human MCF7 cells assessed as reduction in MDM2 protein level at 100 uM pretreated with MG-132 for 2 hrs followed by compound addition and measured after 48 hrs by Western blotting analysis; type: cell-based
Target sequence in this assay (P40337 whole entry, looked up): as the sequence (P40337 whole entry, looked up) above
Target sequence in this assay (Q00987 whole entry, looked up): as the sequence (Q00987 whole entry, looked up) above

[6] = biological target: E3 ubiquitin-protein ligase Mdm2 (Homo sapiens, UniProt Q00987); assay: Binding affinity to MDM2 (unknown origin) by SPR assay
Sequence of E3 ubiquitin-protein ligase Mdm2 (Q00987 whole entry): as the sequence (Q00987 whole entry, looked up) above

Activity [2]: Dose-Dependent Effect
DC50 [2]: 100 µM
Activity [3]: Active
Activity [4]: Active
Activity [5]: inactive
Kd [6]: 32.4 µM
Compound: Cc1ncsc1-c1ccc([C@H](C)NC(=O)[C@@H]2C[C@@H](O)CN2C(=O)[C@@H](NC(=O)CCCCc2cn(CCOCCOCCOCCNC(=O)[C@H](C)CC(=O)C[C@@H](C)[C@H]3C[C@H](O)[C@@]4(C)C5=C(C(=O)C[C@]34C)[C@@]3(C)CCC(=O)C(C)(C)[C@@H]3C[C@@H]5O)nn2)C(C)(C)C)cc1
viability at 100 µM (MCF7): 24.9%
viability at 100 µM (MDA-MB-231): 35.4%
viability at 100 µM (SJSA-1): 69.6%
viability at 100 µM (HepG2): 90.2%
viability at 100 µM [1]: 91.8%
